This is an account of results in patent US20240209445A1, “A CONTINUOUS METRIC TO MEASURE ENDOTYPE AND CORTICOSTEROID INTERACTION IN SEPTIC SHOCK” (CHILDREN'S HOSPITAL MEDICAL CENTER, priority 2021, published 2024).

The series in a line: Validation in adult cohort of the VANISH trial randomized to hydrocortisone or placebo (n=97). The note with it: adult VANISH subset; controlled for illness severity using the APACHE score; lower Z values. Format: in vivo, human. As for the experimental part: The model was also tested using a publicly available transcriptomic data set from the Vasopressin vs. Norepinephrine as Initial Therapy for Septic Shock (VANISH) trial (9, 23). The VANISH trial compared the efficacy of vasopressin to norepinephrine as initial vasopressor therapy for septic shock among adults. Patients who reached a prespecified dose of either vasopressor were further randomized to receive hydrocortisone or placebo. Details of the procedures for assigning the cohort randomized to hydrocortisone or placebo to pediatric endotypes A or B were previously described (10, 15).
The findings above were further validated using a subset of adult subjects from the VANISH trial who were randomized to placebo or hydrocortisone, and for whom there existed publicly available transcriptomic data (n=97). […] The model supports that separation between groups treated with hydrocortisone and those treated with placebo occurs as the Z value decreases.

Turning to `C[C@]12CCC(=O)C=C1CC[C@@H]1[C@@H]2[C@@H](O)C[C@@]2(C)[C@H]1CC[C@]2(O)C(=O)CO` [hydrocortisone], the “Odds of death at 28 days by hydrocortisone exposure and Z value” is “no hydrocortisone exposure and lower Z values tended to have lower odds of death at 28 days”.
